Assay results as given in patent publication US8338414B2, “Immunosuppressive agent and anti-tumor agent comprising heterocyclic compound as active ingredient” (Zenyaku Kogyo KabushikiKaisha, priority 2005, dated 2012).
pIC50: −log10 of the molar value. Read-outs that look alike come from different tables or passages of the source.

What was measured:
mouse spleen cells = assay: Proliferation inhibition assay for mouse spleen cells; assay type: cell-based; details: 72 h, 3 days, Alamar Blue
How it was run: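 C57BL/6N female mouse spleen cells (2×10^6 cells/mL) stimulated with Con A (3 μg/mL), LPS (100 μg/mL) or anti-mouse IgM (100 μg/mL) alongside serially diluted compounds, 3 days at 37° C, 5% CO2. Alamar Blue added for a further day; fluorescence read at ex 530/em 590 nm.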

[1] = system: Salmonella typhimurium TA98, TA100, TA1535, TA1537 and Escherichia coli WP2uvrA; assay: Ames test; assay type: cell-based; details: preincubation method, with or without S-9, up to 5000 μg/flat plate
Method: Using 5 strains of Salmonella typhimurium TA98, TA100, TA1535, TA1537 and Escherichia coli WP2uvrA, the test substances (Compound 4, Compound 19, Compound 22 and Compound 24) were tested for their mutagenesis according to a preincubation method.

Daudi cells = assay: Proliferation inhibitory activity on hematologic neoplasm cells, Daudi; assay type: cell-based; details: Homo sapiens, Daudi, 72 h; 3 days, Alamar Blue
Jurkat cells = assay: Proliferation inhibitory activity on hematologic neoplasm cells, Jurkat; assay type: cell-based; details: Homo sapiens, Jurkat, 72 h; 3 days, Alamar Blue
THP-1 cells = assay: Proliferation inhibitory activity on hematologic neoplasm cells, THP-1; assay type: cell-based; details: Homo sapiens, THP-1, 72 h; 3 days, Alamar Blue
[2] = system: Rabbit synoviocytes HIG-82; assay: Inhibition assay for proliferation of rabbit synoviocyte; assay type: cell-based; details: Oryctolagus cuniculus, 72 h; HIG-82, 3 days, Alamar Blue
[3] = Test for measuring blood level; assay type: in vivo; details: mouse, serum; BDF1 male mice, 200 mg/kg oral, one hour after the administration
Method: A pharmacokinetic study was performed using 6 week-old BDF1 male mice. The test substances were mixed with hydroxylpropylcellulose (low-molecular weight form) [HPC(L)] in 2.5-fold of the drug weight, and dissolved in dichloromethane. The solvent was evaporated to dryness. To make the dosing formation, the residue was suspended in distilled water to prepare the drug level of 20 mg/mL. The test compounds were administered compulsorily and orally at a dose of 200 mg/kg to the mice that had been starved for 16 hours. One hour after the administration, blood was collected from the orbits of two mice to obtain serum. Internal standards solution and 1 ml of distilled water were added to 100 μL, of serum thus obtained, and then extracted with diethylether. The solvent was evaporated under vacuum, and the residue was resolved with eluent to provide samples for the HPLC measurement. HPLC was performed by using reversed-phase type column, and acetonitrile-phosphate buffer (pH 2.5) was used as the eluent. Using regression curves (Y=aX+b) obtained from the standards, the drug levels in the sample serum were calculated.

[4] = system: PC-3 prostate cancer cells; assay: Proliferation inhibitory activity on solid tumor cells, PC-3; assay type: cell-based; details: 72 hours
Method: (§1) Used in the test were MCF-7 cells which were established from human breast cancer and were cultured routinely under the conditions of 37° C. and 5% CO2, in MEM medium supplemented with 10% fetal calf serum, 25 mM of HEPES and 0.1 mg/ml kanamycin. The MCF-7 cells in a logarithmic growth phase were treated with trypsin/EDTA to prepare single cell suspension adjusted to 4.0×10^4 cells/ml in MEM medium (supplemented with 10% fetal calf serum, 25 mM of HEPES and 0.1 mg/ml kanamycin). Test compounds were dissolved in DMSO and diluted with RPMI 1640 medium (supplemented with 10% fetal calf serum, 25 mM of HEPES and 0.1 mg/ml kanamycin) to a concentration of […] to 2.0×10^−9M.
(§2) The cell suspension was filled in a 96-wells microplate at a rate of 0.1 ml per well and was cultured for 24 hours so as to make the cells to adhere to the microplate. Then, it was added with 0.1 ml of the sample solution and cultured at 37° C. for 72 hours in 5% CO2.
(§3) 50% Growth inhibition concentrations (GI50 μM) were calculated from growth inhibitions at various sample concentrations.
(§4) In the foregoing, when the cells other than MCF-7 are used, instead of adding 10% fetal bovine serum, the following media were used, and the following single cell suspensions were prepared. • PC-3 prostate cancer cells: 10% fetal bovine serum in F12K medium, single cell suspension of 2×10^4 cells; • A549 lung cancer cells: 10% fetal bovine serum in DMEM medium, single cell suspension of 1.5×10^4 cells; • WiDr colon cancer cells: 10% fetal bovine serum in MEM medium, single cell suspension of 3×10^4 cells; • B16F10 melanoma cells: 10% fetal bovine serum in RPMI 1640 medium, single cell suspension of 1×10^4 cells;

B16F10 melanoma cells = assay: Proliferation inhibitory activity on solid tumor cells, B16F10; assay type: cell-based; details: Mus musculus, B16-F10; 72 hours
Method: as §1, §2, §3, §4

WiDr colon cancer cells = assay: Proliferation inhibitory activity on solid tumor cells, WiDr; assay type: cell-based; details: Homo sapiens, 72 hours
Method: as §1, §2, §3, §4

A549 lung cancer cells = assay: Proliferation inhibitory activity on solid tumor cells, A549; assay type: cell-based; details: Homo sapiens, 72 hours
Method: as §1, §2, §3, §4

MCF-7 cells = assay: Proliferation inhibitory activity on solid tumor cells, MCF-7; assay type: cell-based; details: Homo sapiens, MCF7; 72 hours
Method: as §1, §2, §3

[5] = system: human peripheral blood mononuclear cells; assay: Proliferation inhibition assay for human peripheral blood mononuclear cells; assay type: cell-based; details: Homo sapiens, 72 h; PBMC, anti-CD3 and anti-CD28 antibody, 3 days, Alamar Blue
Method: 4 mL of blood collected from healthy subjects was placed on 3 mL of MonoPoly Resolving Medium, and after centrifugation, the mononuclear cell (PBMC) fraction was collected. After washing with saline, PBMC (1×10^5 cells/mL) was suspended in RPMI 1640 medium (containing 10% fetal bovine serum, 10 mM HEPES, 1 mM pyruvic acid, and 4.5 g/L glucose). Next, after having added an anti-CD28 antibody (1 μg/mL) to the suspension, they were seeded on an anti-human CD3 T cell activation plate (BD Bioscience) at a capacity of 0.135 mL per well. Then, serial dilutions of test substances were added to respective wells, and incubated under conditions of carbon dioxide 5% at a temperature 37° C. After 3 days, Alamar Blue solution was added at 50 μL per well, and after incubation for one day, a fluorescence intensity at 590 nm using an excitation wavelength of 530 nm was determined by Cytoflour 4000 (Applied Biosystems).

[6] = system: human peripheral blood mononuclear cells; assay: Activation inhibition assay for human peripheral blood mononuclear cells (CD40L, CD69 expression); assay type: cell-based; details: PBMC, anti-CD3 + anti-CD28, 6 hours, flow cytometry
Method: In accordance with the method of Assay Example 2, PBMC (2×10^6 cells/mL) was isolated from human peripheral blood, suspended in RPMI 1640 medium (containing 10% fetal bovine serum, 10 mM HEPES, 1 mM pyruvic acid, and 4.5 g/L glucose), and seeded in wells of a 96 well plate at 0.225 mL per well. The test substances were added to respective wells, and then an anti-CD3 antibody (2 μg/mL) and an anti-CD28 antibody (1 μg/mL) were added. Then, after incubation under conditions of carbon dioxide 5% at a temperature 37° C. for 6 hours, the expressions of CD40L and CD69, activation markers, were analysed by flow cytometry. As a result, when the cells were stimulated by both an anti-CD3 antibody and an anti-CD28 antibody, CD40L was expressed on 14.4% of PBMC, which was also CD4 positive. However, the proportion of the cells which expressed CD40L decreased when the cells had been treated with test substances (Compound 4: 4.9%; Compound 20: 3.7%, Compound 24: 3.6%).

[7] = system: allogeneic mixed lymphocyte reaction; assay: Allogeneic mixed lymphocyte reaction; assay type: cell-based, mouse; details: Mus musculus, Lymphocyte; C57BL/6N spleen stimulator cells, BALB/c lymph node responder cells, 86 hours, BrdU
Method: Spleen cells prepared from C57BL/6N female mice (8-10 weeks old, purchased from Charles River Laboratories Japan Inc.) and peripheral lymph node mononuclear cells prepared from BALB/c female mice (8-10 weeks old, purchased from Charles River Laboratories Japan Inc.) were used as stimulator cells and responder cells, respectively. The respective cells were suspended in RPMI 1640 medium (containing 10% fetal bovine serum, 100 units/mL penicillin, and 0.1 mg/mL streptomycin) (with 2×10^6 cells/mL).

HL 60 cells = assay: Proliferation inhibitory activity on hematologic neoplasm cells, HL60; assay type: cell-based; details: Homo sapiens, HL-60, 72 h; 3 days, Alamar Blue
Method: (§5) Daudi cells (5×10^5 cells/mL), Jurkat cells (5×10^5 cells/mL), THP-1 cells (5×10^5 cells/mL), U 937 cells (5×10^5 cells/mL), and HL 60 cells (5×10^5 cells/mL) suspended in RPMI 1640 medium (containing 10% fetal bovine serum, 10 mM HEPES, 1 mM pyruvic acid, 4.5 g/L glucose, 100 units/mL penicillin, and 0.1 mg/mL streptomycin) were seeded in 96 well plates at a capacity of 0.135 mL per well. Serial dilutions of test substances were added to respective wells at 15 μL/well, and incubated under conditions of carbon dioxide 5% at 37° C. for 3 days. Thereafter, Alamar Blue solution was added at 50 μL, and after incubation for one day, the fluorescence intensity at 590 nm using an excitation wavelength of 530 nm was determined by Cytoflour 4000 (Applied Biosystems).

U 937 cells = assay: Proliferation inhibitory activity on hematologic neoplasm cells, U937; assay type: cell-based; details: Homo sapiens, U-937, 72 h; 3 days, Alamar Blue
Method: as §5

fulminant hepatitis = assay: Fulminant hepatitis model (galactosamine and LPS); assay type: in vivo, mouse; details: BALB/c mice, galactosamine 800 mg/kg and LPS 110 μg/kg i.p.
Method: BALB/c male mice (7 weeks old, purchased from Charles River Laboratories Japan Inc.) were used in the experiment. After having orally administered the test substances suspended in 5% HPC, galactosamine (800 mg/kg) and LPS (110 μg/kg) were intraperitoneally administered. Then, survival rates at 72 hours after administration were obtained.

[8] = LPS 100 μg/mL, read-out: Inhibition of LPS response
[9] = anti-mouse IgM antibody 100 μg/mL, read-out: Inhibition of Anti-IgM antibody response
[10] = concanavalin A 3 μg/mL, read-out: Inhibition of Con A response

Row | Structure (SMILES) | melting point | concentration at 1 h [3] [ng/mL] | pIC50 (mouse spleen cells; [8]) | pIC50 (mouse spleen cells; [10]) | pIC50 (Daudi cells) | pIC50 (Jurkat cells) | pIC50 (THP-1 cells) | other results
1 | CC1(C)COCCN1c1cc(N2CCOCC2)nc(-n2c(C(F)F)nc3c(O)cccc32)n1 [Compound 22, 2-(2-Difluoromethyl-4-hydroxybenzimidazol-1-yl)-4-(3,3-dimethylmorpholino)-6-morpholinopyrimidine] | 204 to 206 °C | – | ≥ 9.00 | ≥ 9.00 | – | – | – | pIC50 (mouse spleen cells; [9]): ≥ 9.00; mutagenesis (colony number of reverse mutation) [1]: negative
2 | CC1(C)CN(c2nc(N3CCOCC3)nc(-n3c(C(F)F)nc4c(Cl)cc(N)cc43)n2)CCO1 [Compound 19, 2-(6-Amino-4-chloro-2-difluoromethylbenzimidazol-1-yl)-4-(2,2-dimethylmorpholino)-6-morpholino-1,3,5-triazine] | 238 °C (dec.) | – | 7.00 to 9.00 | 7.00 to 9.00 | 7.67 | 5.80 | 6.92 | mutagenesis (colony number of reverse mutation) [1]: negative
3 | CC(=O)N1CCN(c2nc(N3CCOCC3)nc(-n3c(C(F)F)nc4ccccc43)n2)CC1 [Compound 28, 4-(4-acetylpiperazin-1-yl)-2-(2-difluoromethylbenzimidazol-1-yl)-6-morpholino-1,3,5-triazine] | 223 °C | 16100 | 7.00 to 9.00 | ≥ 9.00 | 6.63 | 5.74 | 6.30 | pIC50 [2]: 5.95; GI50 [4]: 0.27 µM; GI50 (B16F10 melanoma cells): 2.66 µM; GI50 (WiDr colon cancer cells): 1.27 µM; GI50 (A549 lung cancer cells): 0.83 µM; GI50 (MCF-7 cells): 1.21 µM
4 | OCC1CCCN1c1nc(N2CCOCC2)nc(-n2c(C(F)F)nc3c(O)cccc32)n1 (centres unmarked) [Compound 20, 2-(2-Difluoromethyl-4-hydroxybenzimidazol-1-yl)-4-(2-hydroxymethylpyrrolidin-1-yl)-6-morpholino-1,3,5-triazine] | – | – | ≥ 9.00 | ≥ 9.00 | 8.08 | 6.71 | 7.36 | pIC50 (mouse spleen cells; [9]): ≥ 9.00; pIC50 [5]: 8.09; proportion of the cells which expressed CD40L ([6]; CD4 positive, 14.4% without test substance): 3.7%; proportion of CD4-positive cells which expressed CD69 ([6]; 28.8% without test substance): 10.1%; proportion of CD4-negative cells which expressed CD69 ([6]; 50.9% without test substance): 10.5%; pIC50 [2]: 6.91; pIC50 [7]: 6.87; pIC50 (HL 60 cells): 7.13; pIC50 (U 937 cells): 6.60; Survival Rate after 72 Hours (fulminant hepatitis; 50 mg/kg oral): 17%; Survival Rate after 72 Hours (fulminant hepatitis; 100 mg/kg oral): 72%
5 | COc1cccc2c1nc(C(F)F)n2-c1nc(N2CCOCC2)cc(N2CCO[C@@H](C)[C@H]2C)n1 (relative stereo) [Compound 37, 2-(2-Difluoromethyl-4-methoxybenzimidazol-1-yl)-4-(cis-2,3-dimethylmorpholino)-6-morpholinopyrimidine] | 176 to 178 °C | 4760 | – | – | – | – | – | –

Continued, in another order:

Row | melting point | concentration at 1 h [3] [ng/mL] | Structure (SMILES) | pIC50 (mouse spleen cells; [8]) | pIC50 (mouse spleen cells; [10]) | pIC50 (Daudi cells) | pIC50 (Jurkat cells) | pIC50 (THP-1 cells) | other results
6 | 114 to 116 °C | 5910 | CCOc1cccc2c1nc(C(F)F)n2-c1nc(N2CCOCC2)cc(N2CCOC(C)(C)C2)n1 [Compound 38, 2-(2-Difluoromethyl-4-ethoxybenzimidazol-1-yl)-4-(2,2-dimethylmorpholino)-6-morpholinopyrimidine] | – | – | – | – | – | –
7 | 166 to 168 °C | 7170 | COc1cccc2c1nc(C(F)F)n2-c1nc(N2CCOCC2)cc(N2CCOC(C)(C)C2)n1 [Compound 36, 2-(2-Difluoromethyl-4-methoxybenzimidazol-1-yl)-4-(2,2-dimethylmorpholino)-6-morpholinopyrimidine] | – | – | – | – | – | –
